Measurements from ChEMBL document CHEMBL1128534, “Cyclic lactam alpha-melanotropin analogues of Ac-Nle4-cyclo[Asp5, D-Phe7,Lys10] alpha-melanocyte-stimulating hormone-(4-10)-NH2 with bulky aromatic amino acids at position 7 show high antagonist potency and selectivity at specific melanocortin receptors” (J Med Chem, 1995).
pEC50: −log10 of the molar value.

Tests used:
Type in all cases: functional
[1] = molecular target: Melanocyte-stimulating hormone receptor (Mus musculus, UniProt Q01727)
[2] = molecular target: T1, Melanocyte-stimulating hormone receptor (Homo sapiens, UniProt Q01726)
[3] = molecular target: T1, Melanocyte-stimulating hormone receptor; assay: Evaluated for agonist at […] frog (Rana pipiens) skin assay

Chain of Melanocyte-stimulating hormone receptor (Mus musculus, UniProt Q01727) (Q01727 whole entry): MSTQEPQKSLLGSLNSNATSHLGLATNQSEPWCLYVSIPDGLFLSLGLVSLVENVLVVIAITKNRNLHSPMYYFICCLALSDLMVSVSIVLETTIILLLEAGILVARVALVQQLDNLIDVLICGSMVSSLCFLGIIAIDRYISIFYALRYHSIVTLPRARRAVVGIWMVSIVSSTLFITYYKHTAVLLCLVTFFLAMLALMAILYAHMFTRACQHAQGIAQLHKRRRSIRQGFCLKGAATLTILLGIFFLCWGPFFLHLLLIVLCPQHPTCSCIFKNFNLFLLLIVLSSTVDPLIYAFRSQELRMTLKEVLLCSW
T1 sequence (Q01726 whole entry): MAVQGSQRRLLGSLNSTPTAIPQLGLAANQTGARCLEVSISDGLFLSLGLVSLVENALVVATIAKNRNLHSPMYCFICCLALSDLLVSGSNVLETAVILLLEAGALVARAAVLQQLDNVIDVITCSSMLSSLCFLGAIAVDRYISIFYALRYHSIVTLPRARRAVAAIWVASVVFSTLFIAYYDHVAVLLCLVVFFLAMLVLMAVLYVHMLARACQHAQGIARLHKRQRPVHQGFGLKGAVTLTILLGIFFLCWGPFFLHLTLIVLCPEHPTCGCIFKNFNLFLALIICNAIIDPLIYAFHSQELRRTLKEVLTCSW

| SMILES | pEC50 [1] | pEC50 [2] | pEC50 [3] |
| --- | --- | --- | --- |
| CCCC[C@H](NC(C)=O)C(=O)N[C@H]1CC(=O)NCCCC[C@@H](C(N)=O)NC(=O)[C@H](Cc2c[nH]c3ccccc23)NC(=O)[C@H](CCCNC(=N)N)NC(=O)[C@@H](Cc2ccc3ccccc3c2)NC(=O)[C@H](Cc2c[nH]cn2)NC1=O | 10.41 | – | – |
| CCCC[C@H](NC(C)=O)C(=O)N[C@H]1CC(=O)NCCCC[C@@H](C(N)=O)NC(=O)[C@H](Cc2c[nH]c3ccccc23)NC(=O)[C@H](CCCNC(=N)N)NC(=O)[C@@H](Cc2ccc(Cl)cc2)NC(=O)[C@H](Cc2cnc[nH]2)NC1=O | 11.02 | 11.30 | 8.70 |
| CCCC[C@H](NC(C)=O)C(=O)N[C@H]1CC(=O)NCCCC[C@@H](C(N)=O)NC(=O)[C@H](Cc2c[nH]c3ccccc23)NC(=O)[C@H](CCCN=C(N)N)NC(=O)[C@@H](Cc2ccc(F)cc2)NC(=O)[C@H](Cc2c[nH]cn2)NC1=O | 10.59 | 10.80 | 10.00 |
| CCCC[C@H](NC(C)=O)C(=O)N[C@H]1CC(=O)NCCCC[C@@H](C(N)=O)NC(=O)[C@H](Cc2c[nH]c3ccccc23)NC(=O)[C@H](CCCN=C(N)N)NC(=O)[C@@H](Cc2ccc(I)cc2)NC(=O)[C@H](Cc2c[nH]cn2)NC1=O | 9.72 | 10.26 | – |
